Key:
Assay in all cases: relative viability (nuclei count vs DMSO), 5 days (fraction); higher = more cells survive
Doramapimod + Alpelisib = compound: Cc1ccc(-n2nc(C(C)(C)C)cc2NC(=O)Nc2ccc(OCCN3CCOCC3)c3ccccc23)cc1 [Doramapimod] + Cc1nc(NC(=O)N2CCC[C@H]2C(N)=O)sc1-c1ccnc(C(C)(C)C(F)(F)F)c1 [Alpelisib] (partner 2 µM)
Procedure, shortened: (§1)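 Five library-drug doses in √10 steps were combined with a fixed anchor-drug dose, or a single drug was given alone, by pin tool to lung cancer cell lines in 1536-well plates the day after seeding. Nuclei were stained and counted after 5 days. Relative viability is the nuclei count in treated wells over that in vehicle wells, taken as the median of duplicate plates.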

Doramapimod + Vorinostat = compound: Cc1ccc(-n2nc(C(C)(C)C)cc2NC(=O)Nc2ccc(OCCN3CCOCC3)c3ccccc23)cc1 [Doramapimod] + O=C(CCCCCCC(=O)Nc1ccccc1)NO [Vorinostat] (partner 1 µM)
Procedure, shortened: as §1

RAF265 + Tozasertib = compound: Cn1c(Nc2ccc(C(F)(F)F)cc2)nc2cc(Oc3ccnc(-c4ncc(C(F)(F)F)[nH]4)c3)ccc21 [RAF265] + Cc1cc(Nc2cc(N3CCN(C)CC3)nc(Sc3ccc(NC(=O)C4CC4)cc3)n2)n[nH]1 [Tozasertib] (partner 0.1 µM)
Procedure, shortened: as §1

RAF265 + Dasatinib = compound: Cn1c(Nc2ccc(C(F)(F)F)cc2)nc2cc(Oc3ccnc(-c4ncc(C(F)(F)F)[nH]4)c3)ccc21 [RAF265] + Cc1nc(Nc2ncc(C(=O)Nc3c(C)cccc3Cl)s2)cc(N2CCN(CCO)CC2)n1 [Dasatinib] (partner 0.075 µM)
Procedure, shortened: as §1

Cell Line	relative viability (Doramapimod + Alpelisib; first compound 0.02 µM)	relative viability (Doramapimod + Alpelisib; first compound 0.06325 µM)	relative viability (Doramapimod + Alpelisib; first compound 0.2 µM)	relative viability (Doramapimod + Alpelisib; first compound 0.6325 µM)	relative viability (Doramapimod + Alpelisib; first compound 2 µM)	relative viability (Doramapimod + Vorinostat; first compound 0.02 µM)	relative viability (Doramapimod + Vorinostat; first compound 0.06325 µM)	relative viability (Doramapimod + Vorinostat; first compound 0.2 µM)	relative viability (Doramapimod + Vorinostat; first compound 0.6325 µM)	relative viability (Doramapimod + Vorinostat; first compound 2 µM)	relative viability (RAF265 + Tozasertib; first compound 0.01 µM)	relative viability (RAF265 + Tozasertib; first compound 0.03162 µM)	relative viability (RAF265 + Tozasertib; first compound 0.1 µM)	relative viability (RAF265 + Tozasertib; first compound 0.3162 µM)	relative viability (RAF265 + Tozasertib; first compound 1 µM)	relative viability (RAF265 + Dasatinib; first compound 0.01 µM)	relative viability (RAF265 + Dasatinib; first compound 0.03162 µM)	relative viability (RAF265 + Dasatinib; first compound 0.1 µM)	relative viability (RAF265 + Dasatinib; first compound 0.3162 µM)	relative viability (RAF265 + Dasatinib; first compound 1 µM)
HCC-15	0.854	0.801	0.884	0.906	0.775	0.859	0.901	0.834	0.971	0.807	0.406	0.32	0.538	0.401	0.278	0.66	0.662	0.688	0.426	0.337
H3255	0.785	0.659	0.705	0.83	0.621	0.864	0.884	0.818		0.84	0.553	0.54	0.605		0.476	0.526	0.332	0.381		0.319
NCI-H596	0.486	0.502	0.469	0.529	0.431	0.643	0.672	0.616	0.605	0.561	1.04	0.959	1.06	0.888	0.728	0.63	0.76	0.582	0.612	0.366
NCI-H2087	1.2	1.25	1.05	1.23	0.838	0.932	0.764	0.668	0.718	0.669	0.268	0.266	0.284	0.205	0.152	0.743	0.76	0.6	0.639	0.383
NCI-H661	0.593	0.732	0.618	1.04	0.515	0.815	0.74	0.797	0.788	0.767	0.374	0.35	0.314	0.351	0.35	0.925	0.771	0.546	0.598	0.42
EMC-BAC-2	0.75	0.736	0.727	0.761	0.695	0.49	0.867	0.78	0.256	0.433	0.28	0.266	0.209	0.202	0.082	0.318	0.256	0.196	0.224	0.0752
NCI-H1355	0.739	0.793	0.754	0.868	0.732	0.621	0.577	0.64	0.704	0.566	0.575	0.515	0.587	0.47	0.19	0.804	0.709	0.545	0.601	0.264
NCI-H23	0.711	0.64	0.753	0.867	0.59	0.633	0.563	0.554	0.656	0.473	0.368	0.373	0.334	0.254	0.172	0.716	0.75	0.622	0.48	0.325
NCI-H1651	0.788	0.987	0.876	0.962	0.859	0.514	0.604	0.602	0.623	0.552	0.744	0.718	0.731	0.703	0.426	0.417	0.408	0.368	0.398	0.263
NCI-H1975	0.756	0.674	0.69	0.77	0.676	0.733	0.724	0.699	0.758	0.636	0.676	0.621	0.7	0.379	0.126	0.335	0.226	0.237	0.177	0.124
COR-L23	0.762	0.719	0.755	0.734	0.697	0.449	0.489	0.386	0.537	0.424	0.212	0.176	0.208	0.201	0.161	0.503	0.473	0.383	0.32	0.251
LOU-NH91	0.794	0.728	0.728	0.893	0.574	0.966	0.944	0.945	0.847	0.632	0.705	0.618	0.78	0.457	0.467	0.563	0.49	0.497	0.45	0.343
NCI-H441	0.694		0.813	0.704	0.779	0.72	0.851	0.591	0.798	0.644	0.715	0.69	0.667	0.475	0.36	0.692	0.773	0.518	0.431	0.496
NCI-H647	1.26	1.15	1.14	1.12	1.03	0.336	0.621	0.429	0.548	0.381	0.197	0.207	0.269	0.443	0.158	0.197	0.132	0.242	0.0861	0.0896
NCI-H1915	1.04	1.1	1.12	1.11	1.08	0.52	0.571	0.551	0.563	0.442	0.437	0.428	0.457	0.278	0.163	0.342	0.332	0.213	0.151	0.137
NCI-H1734	0.603	0.567	0.559	0.629	0.533	0.705	0.739	0.665	0.94	0.621	0.306	0.276	0.255	0.232	0.215	0.482	0.373	0.369	0.358	0.266
NCI-H1993	0.765	0.617	0.707	0.626	0.664	0.835	0.723	0.819	1.18	0.834	0.606	0.57	0.571	0.593	0.594	0.618	0.497	0.545	0.619	0.528
LK-2	1.03	0.906	0.751	0.737	0.76	0.283	0.296	0.266	0.242	0.29	0.164	0.166	0.153	0.178	0.152	0.272	0.295	0.291	0.394	0.213
HCC-78	0.288	0.327	0.325	0.343	0.285	0.456	0.369	0.492	0.434	0.412	0.349	0.472	0.417	0.463	0.396	0.371	0.482	0.457	0.387	0.34
NCI-H2405	0.82	0.718	0.715	1.18	0.678	1.1	1.12	1.22	0.958	1.02	0.798	0.736	0.876	0.853	0.458	0.242	0.194	0.191	0.159	0.193
HOP-62	0.898	1.14	0.896	0.975	0.874	0.653	0.714	0.721	0.606	0.623	0.338	0.326	0.406	0.515	0.225	0.747	0.618	0.647	0.691	0.504
NCI-H650	1.16	1.17	1.23	1.34	1.23	0.534	0.568	0.423	0.414	0.456	0.716	0.704	0.738	0.655	0.375	0.464	0.429	0.369	0.265	0.259
NCI-H358	0.885	0.653	0.768	0.918	0.799	0.69	0.669	0.66	0.762	0.594	0.11	0.0915	0.0883	0.0935	0.0863	0.179	0.217	0.16	0.171	0.0873
BEN	0.903	0.876	1.05	0.97	0.95	0.54	0.561	0.513	0.458	0.584	0.441	0.575	0.468	0.554	0.407	0.28	0.323	0.379	0.358	0.356
SW 1573	0.766	0.712	0.644	0.726	0.549	0.9	0.549	0.581	0.791	0.539	0.168	0.24	0.171	0.183	0.139	0.54	0.442	0.31	0.29	0.21
SK-MES-1	0.87	0.765	0.766	0.869	0.675	1.21	1.09	1.07	1.12	1.11	0.853	0.603	0.399	0.348	0.275	0.482	0.203	0.164	0.171	0.157
NCI-H1755	0.907	0.884	0.989	0.98	0.922	0.798	0.748	0.619	0.768	0.687	0.556	0.634	0.598	0.552	0.402	0.404	0.427	0.33	0.294	0.195

From the supplement of paper PMC10307832
